Measured values from PubChem BioAssay (NCI).
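Five compound concentrations were applied to cells in 96-well plates for 48 hours; endpoints were derived by simple linear interpolation of the resulting dose-response curve. Abbreviation: GI50, concentration required for 50% inhibition of growth. The concentration for full growth arrest is given as TGI.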

Assays:
Experiment in all cases: NCI-60 cell line screen, 48 h
[1] = system: K-562 leukemia
[2] = system: SNB-75 CNS
[3] = system: IGROV1 ovarian
[4] = system: HL-60(TB) leukemia
[5] = system: SF-295 CNS
[6] = system: NCI-H460 lung
[7] = system: RXF 393 renal
[8] = system: MOLT-4 leukemia
[9] = system: LOX IMVI melanoma
[10] = system: A549 NSCLC

| SMILES | TGI [1] [µM] | TGI [2] [µM] | TGI [3] [µM] | TGI [4] [µM] | TGI [5] [µM] | TGI [6] [µM] | TGI [7] [µM] | TGI [8] [µM] | TGI [9] [µM] | GI50 [10] [nM] | TGI [10] [µM] | GI50 [1] [nM] | GI50 [2] [nM] | GI50 [3] [nM] | GI50 [4] [nM] | GI50 [5] [nM] | GI50 [9] [nM] | GI50 [6] [nM] | GI50 [7] [nM] | GI50 [8] [nM] |
| --- | --- | --- | --- | --- | --- | --- | --- | --- | --- | --- | --- | --- | --- | --- | --- | --- | --- | --- | --- | --- |
| c1ccc(N=C2SC(=NC3CCCCC3)N(C3CCCCC3)C2=Nc2ccccc2)cc1 | > 100 | > 100 | > 100 | > 100 | > 100 | > 100 | > 100 | > 100 |  |  |  |  |  |  |  |  |  |  |  |  |
| COc1ccccc1C1C(C(=O)O)=C(CO)Oc2cc3c(cc21)OCO3 (stereo unspecified) | > 100 | > 100 | > 100 | > 100 | > 100 | > 100 |  | > 100 | > 100 |  |  |  |  |  |  |  |  |  |  |  |
| Cc1nc(N)sc1-c1ccnc(Nc2ccc(N3CCOCC3)cc2)n1 | > 100 | 5.57 | > 33.7 | 6.08 | 74.4 | > 43.9 | 2.78 | > 56.1 | > 100 | 1130 | > 100 | 1600 | 1380 | 846 | 1990 | 1200 | 907 | 495 | 938 | 497 |
| Cc1ccc(S(=O)(=O)Oc2cc(-c3ccccc3)nc3ccccc23)cc1 | 34.8 | 6.93 | 22.2 | 6.88 | 13.1 | 13.7 | 11.9 | > 100 | > 78.5 |  | > 78.4 |  |  |  |  |  |  |  |  |  |
| CC(=O)OC1CCC2(C)C3CCC4(C)C(c5ccc(=O)oc5)CC5OC54C3CCC2(O)C1 (stereo unspecified) | 24 | 5.77 | 21 | 1.48 | 5.63 | 1.75 | 1.61 | 0.934 | 16.5 |  | 2.15 |  |  |  |  |  |  |  |  |  |
| COc1ccc(C2CC(c3cccc(Nc4ccncc4)c3)=NN2c2cc(Cl)cc(Cl)c2)cc1 (stereo unspecified) | 5.57 | 11.7 | 3.35 | 5.12 | 3.14 | 3.45 |  | 4.97 | 2.97 |  |  | 2410 | 2090 | 1690 | 2170 | 1730 | 1620 | 1860 |  | 2040 |
| NC(Cc1cccc([N+](=O)[O-])c1)C(=O)O (stereo unspecified) | > 100 |  | > 100 | > 100 | > 100 | > 100 | > 100 | > 100 | > 100 |  | > 100 |  |  |  |  |  |  |  |  |  |
| O=C(OC(=O)n1ccc2ccccc21)n1ccc2ccccc21 | > 100 | > 100 | > 100 | > 100 | > 100 | > 100 | > 100 | > 100 | > 100 |  | > 100 |  |  |  |  |  |  |  |  |  |
| NCCCNc1nc2ccccc2c2c(=O)c3cc(OC(F)(F)F)ccc3sc12 |  | 2.73 | 2.9 | 3.59 |  | 2.52 |  |  |  |  |  |  | 1390 | 1460 | 1840 |  |  | 1110 |  |  |
| C=CC(Br)(CBr)CCC(Cl)C(C)C (stereo unspecified) | 5.4 | 3.04 | 8.43 | 2.38 | 3.9 | 4.3 | 3.31 | 4.31 | 2.46 |  | 18 |  |  |  |  |  |  |  |  |  |
| CCC[CH2][Ge]([CH2]CCC)([CH2]CCC)[O]C(=O)CC(=O)c1ccccc1 | 14.7 |  | 13.9 | 11.5 |  | 12.4 | 3.65 | 18 | 1.72 | 735 | 15.9 | 346 |  | 2200 | 138 |  | 313 | 325 | 728 | 457 |
| O=NN(CCCl)C(=O)NC1CCSc2ccccc21 (stereo unspecified) | > 100 | > 100 | > 100 | 48.7 | > 100 | > 100 | > 100 | 99.1 | > 100 |  | > 100 |  |  |  |  |  |  |  |  |  |
| CC(=O)Oc1cccc2c(/C=N/NC(N)=S)ncc(C)c12 | > 100 | > 55.6 | 20.9 | > 100 | 14.4 | 7.81 | 23.7 | > 62.8 | 8.98 |  | 25.6 |  |  |  |  |  |  |  |  |  |
| Cc1cc(=O)[nH]c(NN2C(Cl)C(=O)C2c2cccc(O)c2)n1 (stereo unspecified) | > 100 | 6.73 | > 100 | 29.8 |  | > 100 | > 100 | > 100 | > 100 |  | > 100 |  |  |  |  |  |  |  |  |  |
| Cc1ccc2c(n1)C(=O)c1[nH]c3ccccc3c1C2=O | > 100 |  | 4.3 | 9.43 | 2.05 | 1.63 | 55.4 | 18.9 | 24.8 | 1610 | 4.37 | 3140 |  | 81.9 | 2670 | 761 | 1010 | 337 | 2720 | 3250 |
| O=[N+]([O-])c1ccc(C=C2C(Cl)=C(Cl)C(Cl)=C2Cl)cc1 | > 100 | 6.98 | 4.41 |  | 76.6 | > 100 | 3.39 | > 100 | 4.3 |  |  | 3680 | 2050 | 2000 |  | 3470 | 2000 | 3620 | 1810 | 3070 |
| NNC(N)Nc1ccccc1 (stereo unspecified) | > 100 |  | > 100 | > 100 | > 100 | > 100 | > 100 | > 100 |  |  | > 100 |  |  |  |  |  |  |  |  |  |
